This assay can be described thus: Compound was tested for the inhibition of [35S]GTP-gamma-S, binding in Guinea pig Caudate stimulated by the Opioid receptor delta 1 agonist Delta-SNC80.

Drawing on BindingDB's records for doi:10.1016/s0960-894x(98)00576-9 (Research Triangle Institute, 1999), this text covers Ki for two compounds.

In general, Ki refers to a dissociation constant, usually derived from enzyme kinetics or from competition with a known ligand. Low values mean tighter binding, high ones weaker binding. For `C[C@]12Cc3ccccc3C[C@@]1(c1cccc(O)c1)CCN(CCc1ccccc1)C2` [3-((4aS,10aS)-10a-Methyl-2-phenethyl-1,3,4,5,10,10a-hexahydro-2H-benzo[g]isoquinolin-4a-yl)-phenol], the inhibitory constant (Ki) was determined as 184 nM.
As for `CN1CC[C@]2(c3cccc(O)c3)Cc3ccccc3C[C@]2(C)C1` [3-((4aS,10aS)-2,10a-Dimethyl-1,3,4,5,10,10a-hexahydro-2H-benzo[g]isoquinolin-4a-yl)-phenol], the Ki turned out to be 222 nM.
